pKi: −log10 of the molar value. Where a name gives a salt, the structure may show the parent alone.

T1 sequence (Q60492 whole entry): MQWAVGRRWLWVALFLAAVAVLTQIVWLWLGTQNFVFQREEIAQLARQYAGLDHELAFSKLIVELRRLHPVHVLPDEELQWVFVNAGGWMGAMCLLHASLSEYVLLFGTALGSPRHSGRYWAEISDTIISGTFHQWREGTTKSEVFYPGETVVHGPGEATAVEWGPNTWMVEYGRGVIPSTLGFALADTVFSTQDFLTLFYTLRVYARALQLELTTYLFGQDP

This assay concerns the target T1, σ1-receptor (Cavia porcellus, UniProt Q60492).
T1 construct: Guinea pig brains were homogenized in 10 vols; (w/v) of Tris-HCl 50 mM 0.32 M sucrose; from tissue; host or cells: guinea pig brain membranes
In words: σ1-receptor binding assay, [3H]-(+)-pentazocine, guinea pig brain membranes. The following applies: radioligand [3H]-(+)-pentazocine at 5.0 nM; guinea pig brain membrane; 150 min at 37° C.; nonspecific binding with 1 μM haloperidol. As for the experimental part: Brain membrane preparation and binding assays for the σ1-receptor were performed as described (DeHaven-Hudkins, D. L., L. C. Fleissner, and F. Y. Ford-Rice, 1992, Characterization of the binding of [^3H](+)pentazocine to σ recognition sites in guinea pig brain, Eur. J. Pharmacol. 227, 371-378) with some modifications. Guinea pig brains were homogenized in 10 vols. (w/v) of Tris-HCl 50 mM 0.32 M sucrose, pH 7.4, with a Kinematica Polytron PT 3000 at 15000 r.p.m. for 30 s. The homogenate was centrifuged at 1000 g for 10 min at 4° C. and the supernatants collected and centrifuged again at 48000 g for 15 min at 4° C. The pellet was resuspended in 10 volumes of Tris-HCl buffer (50 mM, pH 7.4), incubated at 37° C. for 30 min, and centrifuged at 48000 g for 20 min at 4° C. Following this, the pellet was re-suspended in fresh Tris-HCl buffer (50 mM, pH 7.4) and stored on ice until use.
The radioligand used was [^3H]-(+)-pentazocine at 5.0 nM and the final volume was 200 μl. The incubation was initiated with the addition of 100 μl of membrane at a final tissue concentration of approximately 5 mg tissue net weight/mL and the incubation time was 150 m. at 37° C. After incubation, the membranes were collected onto pretreated glass fiber filterplate (MultiScreen-FC, Millipore), with polyethylenimine 0.1%. The filters were washed two times with 200 μl of washing buffer (50 mM Tris Cl, pH=7.4) and then 25 μl of Ecoscint H liquid scintillation cocktail were added. Microplates were allowed to set for several hours and then quantified by liquid scintillation spectrophotometry (1450 Microbeta, Wallac). Nonspecific binding was determined with 1 μM haloperidol.
With `CC(C)N1CCN(CCCCOc2cc3n(n2)CCCC3)CC1` [Example 92, 2-(4-(4-isopropylpiperazin-1-yl)butoxy)-4,5,6,7-tetrahydropyrazolo[1,5-a]pyridine maleate], the pKi was 6.74. Consider `CN1CCN(CCCCOc2cc3n(n2)CCCC3)CC1` [Example 93, 2-(4-(4-methylpiperazin-1-yl)butoxy)-4,5,6,7-tetrahydropyrazolo[1,5-a]pyridine maleate], for which the pKi was 6.78.

`CN1CCCN(CCCCOc2cc3n(n2)CCCC3)CC1` [Example 96, 2-(4-(4-methyl-1,4-diazepan-1-yl)butoxy)-4,5,6,7-tetrahydropyrazolo[1,5-a]pyridine maleate] showed a pKi of 6.75.

As to `CCN1CCN(CCCCOc2cc3n(n2)CCCC3)CC1` [Example 98, 2-(4-(4-ethylpiperazin-1-yl)butoxy)-4,5,6,7-tetrahydropyrazolo[1,5-a]pyridine maleate], the negative-log Ki (pKi) was 6.86. Consider `c1c(OCCCN2CCCCC2)nn2c1CCCC2` [Example 99, 2-(3-(piperidin-1-yl)propoxy)-4,5,6,7-tetrahydropyrazolo[1,5-a]pyridine maleate], for which the negative logarithm of the Ki (pKi) is 7.01. The pKi values of the last two compounds are within 0.2 log units of each other. The result for `c1c(OCCCN2CCN(C3CCCCC3)CC2)nn2c1CCCC2` [Example 100, 2-(3-(4-cyclohexylpiperazin-1-yl)propoxy)-4,5,6,7-tetrahydropyrazolo[1,5-a]pyridine maleate] reads 7.43; that for `c1c(OCCCN2CCCOCC2)nn2c1CCCC2` [Example 101, 4-(3-(4,5,6,7-tetrahydropyrazolo[1,5-a]pyridin-2-yloxy)propyl)-1,4-oxazepane], 7.32. In turn, `CC(C)(C)C1CCN(CCCCOc2nn3c(c2Cl)CCCC3)CC1` [Example 105, 2-(4-(4-tert-butylpiperidin-1-yl)butoxy)-3-chloro-4,5,6,7-tetrahydropyrazolo[1,5-a]pyridine maleate] showed a pKi of 7.88.

Regarding `CN(CCOc1nn2ccccc2c1I)Cc1ccccc1` [Example 106, N-benzyl-2-(3-iodopyrazolo[1,5-a]pyridin-2-yloxy)-N-methylethanamine oxalate], the pKi was 8.24. The result for `CN(CCOc1nn2c(c1I)CCCC2)Cc1ccccc1` [Example 107, N-benzyl-2-(3-iodo-4,5,6,7-tetrahydropyrazolo[1,5-a]pyridin-2-yloxy)-N-methylethanamine oxalate] reads 8.53; that for `Clc1c(OCCCCN2CCN(C3CCCCC3)CC2)nn2c1CCCC2` [Example 108, 3-chloro-2-(4-(4-cyclohexylpiperazin-1-yl)butoxy)-4,5,6,7-tetrahydropyrazolo[1,5-a]pyridine], 7.94.

The pKi is the Ki on a negative log10 scale, so that one unit is a factor of ten.
